Like-named read-outs stand apart in the source and are kept apart here.
What was measured:
[1] = test system: Bacteroides fragilis ATCC 23745; assay: Minimal inhibitory concentration against anaerobic bacteria; details: ATCC23745, 24 h
[2] = test system: Trichophyton mentagrophytes; assay: Experimental Trichophyton mentagrophytes infection in guinea pigs; type: in vivo
Source text: Effect of oral or topical administration of HC274, HC344, Clotrimazole, and Ketoconazole on experimental Trichophyton mentagrophytes infection in guinea pigs.
*Based on degree of hair loss, erythema, desquamation, Max. = 100
Treatments administered in Carbopol® gel, once daily days 5-10.

[3] = test system: Desulfovibrio desulfuricans API-CORE; assay: Minimal inhibitory concentration against anaerobic bacteria; details: 24 h
[4] = test system: Clostridium sporogenes ATCC 19404; assay: as above; type: cell-based; details: ATCC19404, 24 h
candida = assay: Intravenous administration: recovery of viable candida cells from the kidneys of infected mice; type: in vivo; details: 25 mg/ml
T. vaginalis ATCC 30001 = assay: Antianaerobic activity, MIC by standard broth dilution method (Table II); type: cell-based; details: Trichomonas vaginalis, ATCC30001, 24 h, read-out: Minimal Inhibitory Concentration (MIC)
How it was run: (§1)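 MIC determined by standard broth dilution against single strains of the anaerobes and T. vaginalis.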

B. fragilis ATCC 23745 = assay: as above; type: cell-based; details: Bacteroides fragilis, ATCC23745, 24 h, read-out: Minimal Inhibitory Concentration (MIC)
How it was run: as §1

B. uniformis ATCC 8492 = assay: as above; type: cell-based; details: Bacteroides uniformis, ATCC8492, 24 h, read-out: Minimal Inhibitory Concentration (MIC)
How it was run: as §1

[5] = test system: Bacteroides uniformis ATCC 8492; assay: Minimal inhibitory concentration against anaerobic bacteria; details: ATCC8492, 24 h
C. albicans = assay: Vaginal candida infection in rats, oral or topical treatment; type: in vivo
Source text: Effect of oral or topical administration of HC274 and ketoconazole on vaginal candida infection in rats. Clearance of C. albicans from rat vagina following oral or topical treatment (as percentage of control).
Topical treatment: 1% solution in polyethylene glycol administrated twice daily for 3 days.
Oral treatment: Once daily for 3 days.

[6] = read-out: Minimal Inhibitory Concentration, Test 1, 24 hours at 37° C.
[7] = read-out: Minimal Inhibitory Concentration, Test 2, 24 hours at 37° C.
[8] = read-out: Minimal Inhibitory Concentration, Test 3, 24 hours at 37° C.

SMILES: Cl.Clc1ccc(/C(Cn2ccnc2)=N\Nc2ccc(Cl)cc2Cl)cc1 [HC274, (E)-1-(4-chlorophenyl)-2-(1H-imidazol-1-yl)ethanone, 2,4-dichlorophenylhydrazone, hydrochloride]
- MIC [1, 6]: 2.5 µg/mL
- MIC [1, 7]: 5 µg/mL
- MIC [1, 8]: 7.5 µg/mL
- Disease rating (degree of hair loss, erythema, desquamation, Max. = 100) ([2]; 40 mg/kg p.o., day 5 after infection): 100
- Disease rating (degree of hair loss, erythema, desquamation, Max. = 100) ([2]; 40 mg/kg p.o., day 10 after infection): 46.9
- Disease rating (degree of hair loss, erythema, desquamation, Max. = 100) ([2]; topical, 1% w/w in Carbopol gel once daily days 5-10, day 10 after infection): 35.4
- Disease rating (degree of hair loss, erythema, desquamation, Max. = 100) ([2]; topical, 1% w/w in Carbopol gel, day 5 after infection): 100
- MIC [3, 6]: 0.75 µg/mL
- MIC [3, 7]: 1 µg/mL
- MIC [3, 8]: 1 µg/mL
- MIC ([4]; Test 1, 24 hours at 37° C.): 2.5 µg/mL
- MIC ([4]; Test 2, 24 hours at 37° C.): 2.5 µg/mL
- MIC ([4]; Test 3, 24 hours at 37° C.): 7.5 µg/mL
- CFU/g kidney (candida): 7.7 × 10^3 CFU/g kidney
- CFU/g kidney, % of control (candida): 52 % of control
- MIC (T. vaginalis ATCC 30001; Test 1): 5 µg/mL
- MIC (T. vaginalis ATCC 30001; Test 2): 7.5 µg/mL
- MIC (T. vaginalis ATCC 30001; Test 3): > 10 µg/mL
- MIC (B. fragilis ATCC 23745; Test 1): 2.5 µg/mL
- MIC (B. fragilis ATCC 23745; Test 2): 5 µg/mL
- MIC (B. fragilis ATCC 23745; Test 3): 7.5 µg/mL
- MIC (B. uniformis ATCC 8492; Test 1): 2.5 µg/mL
- MIC (B. uniformis ATCC 8492; Test 2): 2.5 µg/mL
- MIC (B. uniformis ATCC 8492; Test 3): 5 µg/mL
- MIC [5, 6]: 2.5 µg/mL
- MIC [5, 7]: 2.5 µg/mL
- MIC [5, 8]: 5 µg/mL
- Clearance of C. albicans from rat vagina (as percentage of control) (C. albicans; oral, 10 mg/kg once daily for 3 days): 94.3 percentage of control
- Clearance of C. albicans from rat vagina (as percentage of control) (C. albicans; oral, 20 mg/kg once daily for 3 days): 91.3 percentage of control
- Clearance of C. albicans from rat vagina (as percentage of control) (C. albicans; topical, 1% solution in polyethylene glycol twice daily for 3 days): 95.5 percentage of control
